This note sets out measurements from patent publication US20220213061A9, “HETEROCYCLIC COMPOUNDS FOR MODULATING NR2F6” (TES Pharma S.r.l., priority 2020, published 2022).

Structures can show the parent of a compound that is named as a salt.

The assay deals with T1, recombinant human NR2F6 protein (Homo sapiens, UniProt P10588).
T1 sequence (P10588 1-404): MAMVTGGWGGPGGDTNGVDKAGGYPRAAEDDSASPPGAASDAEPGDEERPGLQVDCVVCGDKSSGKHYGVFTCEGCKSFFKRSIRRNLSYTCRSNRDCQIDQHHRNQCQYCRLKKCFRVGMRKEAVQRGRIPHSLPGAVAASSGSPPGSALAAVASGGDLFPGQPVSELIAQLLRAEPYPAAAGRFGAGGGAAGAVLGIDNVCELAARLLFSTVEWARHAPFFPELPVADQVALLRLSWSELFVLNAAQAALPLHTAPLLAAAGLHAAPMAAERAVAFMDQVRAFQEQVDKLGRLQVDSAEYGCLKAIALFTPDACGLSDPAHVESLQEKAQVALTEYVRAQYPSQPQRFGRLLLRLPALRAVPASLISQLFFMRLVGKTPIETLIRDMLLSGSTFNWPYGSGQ
Kind of assay: Biochemical NR2F6 binding assay (EnSpire label-free). The note with it: label-free binding to immobilized purified recombinant human NR2F6; ligands 1 nM to 100 uM, 1% DMSO. The procedure:
Purified recombinant human NR2F6 protein was dissolved in immobilization buffer at pH 4.5 and then immobilized in EnSpire-LFB High-Sensitivity User-Activated Plates at the concentration of 50 μg/well plate and left in incubation for 16 h at 4° C. Wells with only immobilization buffer were used as negative control to check the protein coating efficiency. NR2F6 ligands were resuspended in DMSO at the concentration of 10 mM, then dispensed into a plate containing assay buffer at concentrations ranging from 1 nM to 100 uM using an HP-dispenser. DMSO was normalized at the 1% of volume of each well. The final readings were taken over a period of 30 minutes. The label-free responses were measured as shifts in reflected wavelength and are expressed in picometers (pm). Results were analyzed using the EnSpire label-free user interface software, and EC50 and graphs were generated using GraphPad PRISM software. In the tables below, A is <1 μM; B is 1 to 10 μM; C is 10 to 50 μM; and D is >50 μM.

Take `O=C(Nc1cccc2cnccc12)[C@@H]1CNC[C@H]1c1nccs1` [Compound I-59, (3S,4S)—N-(Isoquinolin-5-yl)-4-(1,3-thiazol-2-yl)pyrrolidine-3-carboxamide dihydrochloride]: the EC50 – broadly, the concentration giving half of the maximal effect – is above 50 µM. Take `O=C(Nc1cccc2cnccc12)[C@@H]1CNC[C@@H]1c1ccccc1` [Compound I-66, (3S,4S)—N-(Isoquinolin-5-yl)-4-phenylpyrrolidine-3-carboxamide dihydrochloride]: the 50% effective concentration (EC50) was above 50 µM. Turning to `O=C(Nc1cccc(-c2cccnc2)c1)[C@@H]1CN(C2CCOCC2)C[C@H]1c1ccccc1` (racemic) [Compound I-54, (±)-trans-4-Phenyl-N-[3-(pyridin-3-yl)phenyl]-1-(tetrahydro-2H-pyran-4-yl)pyrrolidine-3-carboxamide], the EC50 was above 50 µM. To `O=C(Nc1cccc2cccnc12)[C@@H]1CNC[C@H]1c1ccccc1` (racemic) [Compound I-18, (±)-trans-4-Phenyl-N-(quinolin-8-yl)pyrrolidine-3-carboxamide dihydrochloride] belongs 10 to 50 µM. In the case of `O=C(Nc1cccc(-c2ccccc2)c1)[C@@H]1CNC[C@H]1c1cccs1` (racemic) [Compound I-22, (±)-trans-N-(Biphenyl-3-yl)-4-(thiophen-2-yl)pyrrolidine-3-carboxamide hydrochloride], the EC50 was below 1 µM. On to `O=C(Nc1cccc(-c2cccnc2)c1)[C@H]1CNC[C@@H]1Cc1ccccc1` (racemic) [Compound I-72, (±)-trans 4-Benzyl-N-[3-(pyridin-3-yl)phenyl]pyrrolidine-3-carboxamide dihydrochloride], for which the EC50 is above 50 µM. To `O=C(Nc1cccc2cnccc12)[C@H]1CNC[C@@H]1c1cccs1` [Compound I-44, (3R,4R)—N-(Isoquinolin-5-yl)-4-(thiophen-2-yl)pyrrolidine-3-carboxamide dihydrochloride] belongs above 50 µM; to `O=C(Nc1cccc2cnccc12)O[C@@H]1CNC[C@H]1c1ccccc1` (racemic) [Compound I-4, (±)-trans-4-Phenylpyrrolidin-3-yl isoquinolin-5-ylcarbamate], 1 to 10 µM. Turning to `O=C(Nc1cccc(Oc2ccc(F)cc2)c1)[C@H]1CNC[C@@H]1c1ccccc1` (racemic) [Compound I-93, (±)-trans-N-[3-(4-Fluorophenoxy)phenyl]-4-phenylpyrrolidine-3-carboxamide hydrochloride], the 50% effective concentration (EC50) was below 1 µM.

As to `CN1CCC(CNC(=O)[C@H]2CNC[C@@H]2c2ccccc2)CC1` [Compound I-35, (3R,4S)—N-[(1-Methylpiperidin-4-yl)methyl]-4-phenylpyrrolidine-3-carboxamide dihydrochloride], the EC50 was above 50 µM. The same measure for `O=C(Nc1cccc2cnccc12)[C@H]1CNC[C@@H]1c1nccs1` [Compound I-58, (3R,4R)—N-(Isoquinolin-5-yl)-4-(1,3-thiazol-2-yl)pyrrolidine-3-carboxamide dihydrochloride]: above 50 µM; for `Cc1cc2c(NC(=O)[C@@H]3CNC[C@H]3c3ccccc3)cccc2cn1` (racemic) [Compound I-15, (±)-trans-N-(3-Methylisoquinolin-5-yl)-4-phenylpyrrolidine-3-carboxamide dihydrochloride]: 1 to 10 µM; for `O=C(Nc1ccc(-c2ccccc2)cc1)[C@@H]1CNC[C@H]1c1ccccc1` (racemic) [Compound I-24, (±)-trans-N-(Biphenyl-4-yl)-4-phenylpyrrolidine-3-carboxamide hydrochloride]: 1 to 10 µM. With `O=C(Nc1cccc2ccccc12)[C@H]1CNC[C@@H]1c1ccc(C(F)(F)F)cc1` [Compound I-109, (3R,4S)—N-(Naphthalen-1-yl)-4-[4-(trifluoromethyl)phenyl]pyrrolidine-3-carboxamide hydrochloride], the concentration giving a half-maximal response (EC50) was in the range of 1 to 10 µM.

On to `O=C([C@@H]1CNC[C@H]1c1ccccc1)N1CC(c2cccnc2)C1` (racemic) [Compound I-48, (±)-trans-(4-Phenylpyrrolidin-3-yl)[3-(pyridin-3-yl)azetidin-1-yl]methanone dihydrochloride], for which the EC50 was above 50 µM. The same measure for `O=C(Nc1csc2cnccc12)[C@H]1CNC[C@@H]1c1ccccc1` [Compound I-32, (3R,4S)-4-Phenyl-N-(thieno[2,3-c]pyridin-3-yl)pyrrolidine-3-carboxamide dihydrochloride]: 1 to 10 µM; for `O=C(Nc1cccc(Oc2ccc(C(F)(F)F)nc2)c1)[C@H]1CNC[C@@H]1c1ccccc1` [Compound I-119, 3R,4S)-4-Phenyl-N-(3-{[6-(trifluoromethyl)pyridin-3-yl]oxy}phenyl) pyrrolidine-3-carboxamide dihydrochloride]: 1 to 10 µM. In the case of `O=C(N[C@@H]1CNC[C@H]1c1ccccc1)c1cccc2cnccc12` (racemic) [Compound I-9, (±)-trans-N-(4-Phenylpyrrolidin-3-yl)isoquinoline-5-carboxamide], the EC50 was in the range of 1 to 10 µM. To `O=C(N[C@H]1CC[C@H](O)CC1)[C@H]1CNC[C@@H]1c1ccccc1` [Compound I-36, (3R,4S)—N-[(1,4-trans)-4-Hydroxycyclohexyl]-4-phenylpyrrolidine-3-carboxamide hydrochloride] belongs above 50 µM. In the case of `O=C(Nc1nccc2ccccc12)[C@@H]1CNC[C@H]1c1ccccc1` (racemic) [Compound I-12, (±)-trans-N-(Isoquinolin-1-yl)-4-phenylpyrrolidine-3-carboxamide dihydrochloride], the EC50 is above 50 µM. The same measure for `O=C(Nc1ccc(-c2cccnc2)cc1)[C@@H]1CNC[C@H]1c1ccccc1` [Compound I-41, (3S,4R)-4-Phenyl-N-[4-(pyridin-3-yl)phenyl]pyrrolidine-3-carboxamide dihydrochloride]: 1 to 10 µM; for `Cc1ccc(O[C@H]2C[C@H](NC(=O)[C@@H]3CNC[C@H]3c3ccccc3)C2)cc1` (racemic) [Compound I-115, (±)-trans-N-[trans-3-(4-Methylphenoxy)cyclobutyl]-4-phenylpyrrolidine-3-carboxamide hydrochloride]: 1 to 10 µM. The same measure for `O=C(NC1CN(c2ccc(F)cc2)C1)[C@@H]1CNC[C@H]1c1ccccc1` [Compound I-118, (3S,4R)-4-Phenyl-N-(1-4-fluorophenylazetidin-3-yl)pyrrolidine-3-carboxamide hydrochloride]: below 1 µM; for `CC(=O)N1C[C@@H](C(=O)Nc2cccc(-c3cccnc3)c2)[C@H](c2ccccc2)C1` (racemic) [Compound I-55, (±)-trans-1-Acetyl-4-phenyl-N-[3-(pyridin-3-yl)phenyl]pyrrolidine-3-carboxamide]: above 50 µM. To `S=C(Nc1cccc2cnccc12)N[C@@H]1CNC[C@H]1c1ccccc1` (racemic) [Compound I-7, (±)-trans-1-Isoquinolin-5-yl-3-(4-phenylpyrrolidin-3-yl)thiourea] belongs 1 to 10 µM; to `N#Cc1ccc(N2CCC(NC(=O)[C@@H]3CNC[C@H]3c3ccccc3)CC2)cc1` [Compound I-122, (3S,4R)-3-{[1-(4-Cyanophenyl)lpiperidin-4-yl]carbamoyl]}-4-phenylpyrrolidine dihydrochloride], below 1 µM. Consider `Cn1ccc2c(NC(=O)[C@H]3CNC[C@@H]3c3ccccc3)cccc2c1=O` [Compound I-84, (3R,4S)—N-(2-Methyl-1-oxo-1,2-dihydroisoquinolin-5-yl)-4-phenylpyrrolidine-3-carboxamide hydrochloride], for which the EC50 was above 50 µM.

Turning to `O=C(Nc1cccc2ncccc12)[C@@H]1CNC[C@H]1c1ccccc1` (racemic) [Compound I-17, (±)-trans-4-Phenyl-N-(quinolin-5-yl)pyrrolidine-3-carboxamide dihydrochloride], the concentration giving a half-maximal response (EC50) fell in the range of 10 to 50 µM. For `O=C(c1cccc2cnccc12)[C@H]1CNC[C@@H]1c1ccccc1` (racemic) [Compound I-100, (±)-trans Isoquinolin-5-yl[(3S,4R)-4-phenylpyrrolidin-3-yl]methanone dihydrochloride], the EC50 was 1 to 10 µM. The same measure for `O=C(Nc1cccc(Nc2cccnc2)c1)[C@H]1CNC[C@@H]1c1ccccc1` (racemic) [Compound I-106, (±)-trans-4-Phenyl-N-[3-(pyridin-3-ylamino)phenyl]pyrrolidine-3-carboxamide dihydrochloride]: below 1 µM; for `c1ccc([C@H]2CNC[C@@H]2Nc2nc3cnccc3s2)cc1` (racemic) [Compound I-10, (±)-trans-N-[4-Phenylpyrrolidin-3-yl][1,3]thiazolo[4,5-c]pyridin-2-amine hydrochloride]: above 50 µM; for `O=C(Nc1cccc2cnccc12)[C@@H]1CNC[C@H]1c1ccccc1` (racemic) [Compound I-21, (±)-trans-N-(Isoquinolin-5-yl)-4-phenylpyrrolidine-3-carboxamide dihydrochloride]: 1 to 10 µM.
